# According to ChEMBL document CHEMBL1201862, “PubChem BioAssay data set” (2004):
#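 These data come from cells grown in 96-well plates and exposed to compound for 48 hours at five concentrations. Here, GI50 denotes the concentration required for 50% inhibition of growth.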 Active and inactive are the calls of the source. No stated cut-off is given here; in the data, active = GI50 up to about 1.1 µM and inactive = higher.
# How the values were obtained:
# Experiment in all cases: NCI tumour cell line growth inhibition, 48 h
# [1] = tested on: EKVX
# [2] = tested on: BT-549
# [3] = tested on: NCI-H226
# [4] = tested on: TK-10
# [5] = tested on: RXF 393
# [6] = tested on: HOP-62
# [7] = tested on: NCI-H460
# [8] = tested on: COLO 205
# [9] = tested on: Hs-578T
# [10] = tested on: SW-620
# [11] = tested on: OVCAR-3
# [12] = tested on: SK-MEL-2
# [13] = tested on: ACHN
# [14] = tested on: UACC-62
# [15] = tested on: CAKI-1
# [16] = tested on: DU-145
# [17] = tested on: NCI/ADR-RES
# [18] = tested on: IGROV-1
# [19] = tested on: RPMI-8226
# [20] = tested on: M14
# [21] = tested on: K562
# [22] = tested on: SNB-19
# [23] = tested on: HCC 2998
# [24] = tested on: SK-MEL-28
# [25] = tested on: HCT-116
# [26] = tested on: NCI-H23
# [27] = tested on: HL-60
# [28] = tested on: OVCAR-4
# [29] = tested on: KM12
# [30] = tested on: MDA-N
# [31] = tested on: SR
# [32] = tested on: A549
# [33] = tested on: NCI-H522
# [34] = tested on: MDA-MB-231
# [35] = tested on: UO-31
# [36] = tested on: SF-295
# [37] = tested on: SNB-75
# [38] = tested on: OVCAR-8
# [39] = tested on: MDA-MB-435
# [40] = tested on: PC-3
# [41] = tested on: CCRF-CEM
# [42] = tested on: SK-MEL-5
# [43] = tested on: HCT-15
# [44] = tested on: SK-OV-3
# [45] = tested on: MOLT-4
# [46] = tested on: SF-268
# [47] = tested on: T47D
# [48] = tested on: OVCAR-5
# [49] = tested on: U-251
# [50] = tested on: SN12C
# [51] = tested on: UACC-257
# [52] = tested on: SF-539
# [53] = tested on: A498
# [54] = tested on: MCF7
# [55] = tested on: 786-0
# [56] = tested on: LOX IMVI
# [57] = tested on: HT-29
compound,measurement,setting,value
O=C1Nc2ccccc2/C1=N/Nc1c(F)c(F)c(F)c(F)c1F,GI50,[1],35 µM (inactive)
same,GI50,[2],> 100 µM (inactive)
same,GI50,[3],53 µM (inactive)
same,GI50,[4],22 µM (inactive)
same,GI50,[5],53.8 µM (inactive)
same,GI50,[6],> 100 µM (inactive)
same,GI50,[7],93.3 µM (inactive)
same,GI50,[8],13.9 µM (inactive)
same,GI50,[9],86.7 µM (inactive)
same,GI50,[10],43.9 µM (inactive)
same,GI50,[11],> 100 µM (inactive)
same,GI50,[12],> 100 µM (inactive)
same,GI50,[13],18 µM (inactive)
same,GI50,[14],> 100 µM (inactive)
same,GI50,[15],30.8 µM (inactive)
same,GI50,[16],67 µM (inactive)
same,GI50,[17],70.1 µM (inactive)
same,GI50,[18],20.5 µM (inactive)
same,GI50,[19],3.83 µM (inactive)
same,GI50,[20],> 100 µM (inactive)
same,GI50,[21],8.63 µM (inactive)
same,GI50,[22],> 100 µM (inactive)
same,GI50,[23],> 100 µM (inactive)
same,GI50,[24],> 100 µM (inactive)
same,GI50,[25],47.8 µM (inactive)
same,GI50,[26],87.7 µM (inactive)
same,GI50,[27],2.77 µM (inactive)
same,GI50,[28],82 µM (inactive)
same,GI50,[29],16.1 µM (inactive)
same,GI50,[30],32.2 µM (inactive)
same,GI50,[31],3.48 µM (inactive)
same,GI50,[32],> 100 µM (inactive)
same,GI50,[33],14.4 µM (inactive)
same,GI50,[34],> 100 µM (inactive)
same,GI50,[35],17.1 µM (inactive)
same,GI50,[36],> 100 µM (inactive)
same,GI50,[37],91.4 µM (inactive)
same,GI50,[38],41.9 µM (inactive)
same,GI50,[39],> 100 µM (inactive)
same,GI50,[40],> 100 µM (inactive)
same,GI50,[41],4 µM (inactive)
same,GI50,[42],58.5 µM (inactive)
same,GI50,[43],29.9 µM
same,GI50,[44],> 100 µM (inactive)
same,GI50,[45],12 µM (inactive)
same,GI50,[46],49.5 µM (inactive)
same,GI50,[47],22 µM (inactive)
same,GI50,[48],> 100 µM (inactive)
same,GI50,[49],> 100 µM (inactive)
same,GI50,[50],36.5 µM (inactive)
same,GI50,[51],27.2 µM (inactive)
same,GI50,[52],48.4 µM (inactive)
same,GI50,[53],66.8 µM (inactive)
same,GI50,[54],36.6 µM (inactive)
same,GI50,[55],22 µM (inactive)
same,GI50,[56],31.2 µM (inactive)
same,GI50,[57],42.8 µM (inactive)
